Patent US20220233523A1, “ANTIBIOTIC POTENTIATION FOR NONTUBERCULOUS MYCOBACTERIAL DISEASE” (priority 2019, published 2022)
Entries after “also recorded” stand apart in the source; their conditions may differ.

Columns and labels:
MAH104 biofilms = type: cell-based, Mycobacterium avium subsp hominissuis 104 (MAH104); settings: O.D.590 nm, biofilm vs planktonic
Description: Metabolic phenotype study was performed with planktonic and biofilm cultures using the 96-well plates PM1 and PM2A (BIOLOG™, Hayward, Calif.). The assays with planktonic cells and biofilms were made at the same time. Each plate contains carbon substrates and one negative control well, in which the bacteria is tested without any substrate. The tests with planktonic and biofilm cultures were performed at the same time and the culture inoculum have the same number of passages. […] The experiments were made as an end-point assay.
The cultures of biofilms were established for 7 days in regular polystyrene 96 well plates, not in PM Biolog plates, as described above with a minor difference. […] (total of 14 days of biofilm incubated at 37° C.). To obtain spectrophotometric measurements from biofilm cultures (O.D.590 nm), the plate was centrifuged for 20 minutes at 3500 rpm at 20° C., which reduce bacteria interference with the readings, and biofilm supernatant was transferred to a new 96 well plates for O.D.590 nm measurement.
Experiments were performed three times as an end-point assay. If planktonic and/or biofilm cultures were able to metabolize a specific metabolite substrate, electrons from NADH reduce the Redox dye in an irreversible reaction that generates a purple color in the PM plate wells. The signal (+) and (−) indicates, respectively, whether a purple color was produced or not. Abiotic reductions of the Redox dye were assessed through adding bacteria-free GN/GP-IF-0a fluid in the wells. Negative control corresponds to the wells without any metabolic substrate.

MAH 3388 biofilm = assay: Amikacin with short-chain fatty acids on biofilm of lung isolate MAH 3388; type: cell-based; settings: for CFU/mL, MAH 3388: amikacin concentration: 4 mg/ml, untreated 9.4 +/− 0.2 × 10^7; for activity to potentiate Amikacin activity: biofilms of MAH 3388
Description: As a negative control, biofilms were incubated only with non-supplemented 7H9 without any antibiotics. […] Subsequently, 100 μl of 0.02% of Triton X-100 (final concentration 0.01%) was added to the established biofilms to mix, dilute and perform CFU analysis with the entire population of biofilms (attached and unattached).
Biofilms were established from an MAH strain isolated from the lungs of a patient (MAH 3388).

[1] = system: M. avium 104 static biofilms; assay: Static biofilm formation in the presence of metabolites (crystal violet); type: cell-based, Mycobacterium avium subsp hominissuis 104 (MAH104); settings: for biofilm formation with 1% and 0.5% of fatty acid: 7H9, 7 days at 37° C., crystal violet
Description: Static biofilms were used in the present study as described previously (Rose S J, Bermudez L E., Infection and Immunity 2014; 82:405-12). Briefly, mycobacteria were taken from 7H10 agar plates and resuspended in deionized water (10^9 of colony forming units/ml; CFU/ml). The bacterial suspension was then washed 3 times with deionized water to remove any remaining of 7H10 media (3500 rpm for 20 minutes at 20° C.). After washing, the MAH104 were resuspended in 7H9 medium without any carbon sources (OADC, glycerol, tween 20 and tween 80) (non-supplemented 7H9) and suspensions were left alone to allow clumped bacteria to settle. The top half of the suspension was transferred to new tube and adjusted to 1×10^8 CFU/ml, using visual turbidity and optical density. Suspensions were inoculated in 96-well polystyrene plates (BD, Franklin Lakes, N.J.) (100 μl for each well [or 10^7 bacteria per well]) and biofilms were formed at 37° C. for 7 days or for 14 days when indicated. […] The raw O.D. at 570 nm values were discounted from O.D. 570 nm average of blank wells (wells with only 7H9 media).
Assays with biofilms incubated with propionic acid, butyric acid, and glycerol were performed to test whether these metabolites affect the formation of biofilms. All the experiments were made in non-supplemented 7H9. The effect of these metabolites was evaluated during biofilm formation, in pre-established biofilms and in M. avium cells pre-attached to polystyrene. To evaluate the effect of targeted metabolites during biofilm formation, mycobacteria suspensions were prepared and inoculated in 96 wells polystyrene plates, as already described, and biofilms were formed in the presence or not of the short-chain fatty acids at different concentrations (1%, 0.5%, 0.1%, 0.05% and 0.01%). For glycerol, only 0.2% was used. The biofilms were formed in 7H9 media at 37° C. for 7 days. For pre-established biofilms, MAH104 was again inoculated in 96 wells plates and biofilms were formed as described herein. […] It was also evaluated whether these metabolites could promote the growth of MAH104 cells present in biofilms through the measurement of […] every 24 hours. Finally, mycobacteria suspension with low density made in 7H9 broth (containing 1×10^6 bacteria/ml) were seeded in 96 wells polystyrene plates and incubated for 7 days at 37° C. […] The growth of pre-attached bacterial cells was followed every 24 hours through O.D.595 nm. The biofilm formation was evaluated by crystal violet.
The next step was to evaluate the capacity of tested substrates to promote the growth of mycobacteria cells that are present in biofilms. […] MAH 104 cells in the presence of non-supplemented 7H9 were used as a negative control. […]

MAH 3393 biofilm = assay: Amikacin with short-chain fatty acids on biofilm of lung isolate MAH 3393; type: cell-based; settings: amikacin concentration: 4 mg/ml; untreated 1.0 +/− 0.8 × 10^8

| Compound | lower capacity of biofilms to use the substrate compared with planktonic cultures (MAH104 biofilms) [fold] | CFU/mL, MAH 3388 (MAH 3388 biofilm) | activity to potentiate Amikacin activity (MAH 3388 biofilm) | biofilm formation with 1% and 0.5% of fatty acid [1] | CFU/mL, MAH 3393 (MAH 3393 biofilm) | increase in biofilm formation in comparison with non-supplemented 7H9 ([1]; glycerol 0.2%, 7 days) [×] |
| --- | --- | --- | --- | --- | --- | --- |
| CCC(=O)O [Propionic acid] | 5.49 | 9.6 +/− 0.4 × 10^7 CFU/mL | confirmed | unable to form biofilm; also recorded: significant decrease | 1.7 +/− 0.4 × 10^7 CFU/mL | – |
| CCCC(=O)O [Butyric acid] | – | 9.7 +/− 0.6 × 10^7 CFU/mL | confirmed | same results; also recorded: significant decrease | 6.2 +/− 0.7 × 10^7 CFU/mL | – |
| OCC(O)CO [Glycerol] | 11.14 | – | – | – | – | 3.2 |
